From PubChem BioAssay (NCI)
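These data come from cells grown in 96-well plates and exposed to compound for 48 hours at five concentrations. At the GI50, growth is halved. TGI marks complete inhibition of growth.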

How the values were obtained:
Assay in all cases: NCI tumour cell line growth inhibition, 48 h
DU-145 prostate = system: DU-145 prostate
EKVX NSCLC = system: EKVX NSCLC
SK-MEL-2 melanoma = system: SK-MEL-2 melanoma
786-0 renal = system: 786-0 renal
NCI-H226 lung = system: NCI-H226 lung
ACHN renal = system: ACHN renal
IGROV1 ovarian = system: IGROV1 ovarian
M14 melanoma = system: M14 melanoma
HT29 colon = system: HT29 colon
PC-3 prostate = system: PC-3 prostate
KM12 colon = system: KM12 colon
HOP-92 NSCLC = system: HOP-92 NSCLC
SW-620 colon = system: SW-620 colon
BT-549 breast = system: BT-549 breast
NCI-H522 lung = system: NCI-H522 lung
UO-31 renal = system: UO-31 renal
NCI/ADR-RES ovarian = system: NCI/ADR-RES ovarian
SF-268 CNS = system: SF-268 CNS
MOLT-4 leukemia = system: MOLT-4 leukemia
LOX IMVI melanoma = system: LOX IMVI melanoma
RPMI-8226 leukemia = system: RPMI-8226 leukemia
SF-295 CNS = system: SF-295 CNS
UACC-257 melanoma = system: UACC-257 melanoma
RXF 393 renal = system: RXF 393 renal
SK-OV-3 ovarian = system: SK-OV-3 ovarian
MDA-MB-231 breast = system: MDA-MB-231 breast
OVCAR-5 ovarian = system: OVCAR-5 ovarian
NCI-H23 lung = system: NCI-H23 lung
MDA-MB-435 = system: MDA-MB-435
T-47D breast = system: T-47D breast
SK-MEL-28 melanoma = system: SK-MEL-28 melanoma
HCC-2998 colon = system: HCC-2998 colon
CCRF-CEM leukemia = system: CCRF-CEM leukemia
OVCAR-8 ovarian = system: OVCAR-8 ovarian
SNB-75 CNS = system: SNB-75 CNS
OVCAR-4 ovarian = system: OVCAR-4 ovarian
SNB-19 CNS = system: SNB-19 CNS
HOP-62 NSCLC = system: HOP-62 NSCLC
MCF7 breast = system: MCF7 breast
SF-539 CNS = system: SF-539 CNS
COLO 205 colon = system: COLO 205 colon
NCI-H460 lung = system: NCI-H460 lung
HCT-15 colon = system: HCT-15 colon
CAKI-1 renal = system: CAKI-1 renal
A549 NSCLC = system: A549 NSCLC
A498 renal = system: A498 renal
SK-MEL-5 melanoma = system: SK-MEL-5 melanoma
SN12C renal = system: SN12C renal
HCT-116 colon = system: HCT-116 colon
HS 578T breast = system: HS 578T breast
OVCAR-3 ovarian = system: OVCAR-3 ovarian
U251 CNS = system: U251 CNS
UACC-62 melanoma = system: UACC-62 melanoma

`O=C(Cc1csc2nc(-c3ccc(Br)cc3)cn12)N/N=C/c1ccc(Cl)cc1Cl` gave a GI50 (DU-145 prostate) of 26.3 µM, a TGI (DU-145 prostate) of over 100 µM and a GI50 (EKVX NSCLC) of 31.6 µM. It also gave a TGI (EKVX NSCLC) of over 100 µM, a GI50 (SK-MEL-2 melanoma) of 72 µM and a TGI (SK-MEL-2 melanoma) of over 100 µM. The GI50 (786-0 renal) was 25.8 µM, the TGI (786-0 renal) was 73.4 µM and the GI50 (NCI-H226 lung) was 31.8 µM. For the same compound, the TGI (NCI-H226 lung) was 92.2 µM, the GI50 (ACHN renal) was 22.6 µM and the TGI (ACHN renal) was 53.6 µM. It also gave a GI50 (IGROV1 ovarian) of 16 µM, a TGI (IGROV1 ovarian) of 45.6 µM and a GI50 (M14 melanoma) of 32.9 µM. The TGI (M14 melanoma) was over 100 µM, the GI50 (HT29 colon) was 40.8 µM and the TGI (HT29 colon) was over 100 µM. The GI50 (PC-3 prostate) was 30.2 µM, the TGI (PC-3 prostate) was over 100 µM and the GI50 (KM12 colon) was 38.2 µM. For the same compound, the TGI (KM12 colon) was over 100 µM, the GI50 (HOP-92 NSCLC) was 28.2 µM and the TGI (HOP-92 NSCLC) was over 100 µM. For the same compound, the GI50 (SW-620 colon) was 23 µM, the TGI (SW-620 colon) was 60.2 µM and the GI50 (BT-549 breast) was 25.9 µM. For the same compound, the TGI (BT-549 breast) was 76.9 µM, the GI50 (NCI-H522 lung) was 25.8 µM and the TGI (NCI-H522 lung) was over 100 µM. The GI50 (UO-31 renal) was 72.4 µM, the TGI (UO-31 renal) was over 100 µM and the GI50 (NCI/ADR-RES ovarian) was 17.2 µM. For the same compound, the TGI (NCI/ADR-RES ovarian) was 52.3 µM, the GI50 (SF-268 CNS) was over 100 µM and the TGI (SF-268 CNS) was over 100 µM. The TGI (MOLT-4 leukemia) was 26.3 µM, the GI50 (LOX IMVI melanoma) was 21.2 µM and the TGI (LOX IMVI melanoma) was 48.6 µM. For the same compound, the GI50 (RPMI-8226 leukemia) was 80.2 µM, the TGI (RPMI-8226 leukemia) was over 100 µM and the GI50 (SF-295 CNS) was 34.7 µM. It also gave a TGI (SF-295 CNS) of over 100 µM, a GI50 (UACC-257 melanoma) of 68.9 µM and a TGI (UACC-257 melanoma) of over 100 µM. For the same compound, the GI50 (RXF 393 renal) was 28.4 µM, the TGI (RXF 393 renal) was 85.1 µM and the GI50 (SK-OV-3 ovarian) was over 100 µM. For the same compound, the TGI (SK-OV-3 ovarian) was over 100 µM, the GI50 (MDA-MB-231 breast) was 26.2 µM and the TGI (MDA-MB-231 breast) was over 100 µM. It also gave a GI50 (OVCAR-5 ovarian) of 28.6 µM, a TGI (OVCAR-5 ovarian) of 67.3 µM and a GI50 (NCI-H23 lung) of 25.6 µM. For the same compound, the TGI (NCI-H23 lung) was 56.4 µM, the GI50 (MDA-MB-435) was 31.4 µM and the TGI (MDA-MB-435) was over 100 µM. For the same compound, the GI50 (T-47D breast) was over 100 µM, the TGI (T-47D breast) was over 100 µM and the GI50 (SK-MEL-28 melanoma) was over 100 µM. It also gave a TGI (SK-MEL-28 melanoma) of over 100 µM, a GI50 (HCC-2998 colon) of 20 µM and a TGI (HCC-2998 colon) of 44.8 µM. For the same compound, the GI50 (CCRF-CEM leukemia) was 40 µM, the TGI (CCRF-CEM leukemia) was over 100 µM and the GI50 (OVCAR-8 ovarian) was 18.6 µM. It also gave a TGI (OVCAR-8 ovarian) of 50.3 µM, a GI50 (SNB-75 CNS) of 37.5 µM and a TGI (SNB-75 CNS) of over 100 µM. It also gave a GI50 (OVCAR-4 ovarian) of 37.3 µM, a TGI (OVCAR-4 ovarian) of over 100 µM and a GI50 (SNB-19 CNS) of 94.6 µM. For the same compound, the TGI (SNB-19 CNS) was over 100 µM, the GI50 (HOP-62 NSCLC) was 16.6 µM and the TGI (HOP-62 NSCLC) was 35 µM. It also gave a GI50 (MCF7 breast) of over 100 µM, a TGI (MCF7 breast) of over 100 µM and a GI50 (SF-539 CNS) of 27.2 µM. The TGI (SF-539 CNS) was 63.8 µM, the GI50 (COLO 205 colon) was 75 µM and the TGI (COLO 205 colon) was over 100 µM. The GI50 (NCI-H460 lung) was over 100 µM, the TGI (NCI-H460 lung) was over 100 µM and the GI50 (HCT-15 colon) was 25.5 µM. For the same compound, the TGI (HCT-15 colon) was 73.2 µM, the GI50 (CAKI-1 renal) was 36.1 µM and the TGI (CAKI-1 renal) was over 100 µM. It also gave a GI50 (A549 NSCLC) of 16.8 µM, a TGI (A549 NSCLC) of 37.5 µM and a GI50 (A498 renal) of 29.3 µM. For the same compound, the TGI (A498 renal) was 62.7 µM, the GI50 (SK-MEL-5 melanoma) was 44.2 µM and the TGI (SK-MEL-5 melanoma) was over 100 µM. For the same compound, the GI50 (SN12C renal) was 84.7 µM, the TGI (SN12C renal) was over 100 µM and the GI50 (HCT-116 colon) was 17.1 µM. It also gave a TGI (HCT-116 colon) of 36.8 µM, a GI50 (HS 578T breast) of 31.8 µM and a TGI (HS 578T breast) of 89.1 µM. For the same compound, the GI50 (OVCAR-3 ovarian) was 34.9 µM, the TGI (OVCAR-3 ovarian) was over 100 µM and the GI50 (U251 CNS) was 20.6 µM. The TGI (U251 CNS) was 44.3 µM, the GI50 (UACC-62 melanoma) was 23.3 µM and the TGI (UACC-62 melanoma) was 67.7 µM.
